Data taken from ChEMBL document CHEMBL5724696, “Autophagy assay results for EUbOPEN Chemogenomics Library” (2024).

How the values were obtained:
Assay type in all cases: functional, Homo sapiens
TERT-RPE1 = assay: (§1) Here: values are normalized to the negative (DMSO; defined as 0% autophagy induction) and positive (250nM Torin1; mTOR inhibitor; defined as maximal inducer of autophagy = 100%) control compounds and represented as % of autophagy induction. […] The impact of autophagy induction on cells is complex and depends on the affected target. As such, the magnitude of a phenotype may not be equally mirrored in the %-value of autophagy induction and vice versa. The dynamics of the induction may indicate the mode of activation: e.g. activation via phosphorylation or a signaling cascade may occur fast, while activation via transcription factors may take considerably longer. […] Of note, treatment concentrations may be sub-optimal for specific compounds, leading to false negative annotations.; details: Culturing Media DMEM/F12 (1:1), 1 % Penicillin/Streptomycin, 10% Fetal bovin serum Add-On: No, Screening Media Control DMEM/F12 (1:1), Screening Media Samples DMEM/F12 (1:1)
U2OS [1] = assay: as §1; details: Culturing Media DMEM, 1 % Penicillin/Streptomycin, 10% Fetal bovin serum Add-On: No, Screening Media Control DMEM, Screening Media Samples DMEM
U2OS [2] = assay: as §1; details: Culturing Media DMEM, 1 % Penicillin/Streptomycin, 10% Fetal bovin serum Add-On: No, Screening Media Control DMEM, Screening Media Samples DMEM; remark: listed apart in the source
[3] = Compound Concentration 0.5 uM, Timepoint 12 hours
[4] = Compound Concentration 0.5 uM, Timepoint 24 hours
[5] = Compound Concentration 0.5 uM, Timepoint 36 hours
[6] = Compound Concentration 0.5 uM, Timepoint 60 hours
[7] = Compound Concentration 2 uM, Timepoint 12 hours
[8] = Compound Concentration 2 uM, Timepoint 24 hours
[9] = Compound Concentration 2 uM, Timepoint 36 hours
[10] = Compound Concentration 2 uM, Timepoint 60 hours
[11] = Compound Concentration 10 uM, Timepoint 12 hours
[12] = Compound Concentration 10 uM, Timepoint 24 hours
[13] = Compound Concentration 10 uM, Timepoint 36 hours
[14] = Compound Concentration 10 uM, Timepoint 60 hours

Row | Structure (SMILES) | autophagy induction (TERT-RPE1; [3]) | autophagy induction (TERT-RPE1; [4]) | autophagy induction (TERT-RPE1; [5]) | autophagy induction (TERT-RPE1; [6]) | autophagy induction (TERT-RPE1; [7]) | autophagy induction (TERT-RPE1; [8]) | autophagy induction (TERT-RPE1; [9]) | autophagy induction (TERT-RPE1; [10]) | autophagy induction (TERT-RPE1; [11]) | autophagy induction (TERT-RPE1; [12]) | autophagy induction (TERT-RPE1; [13]) | autophagy induction (TERT-RPE1; [14]) | autophagy induction (U2OS [1]; [3]) | autophagy induction (U2OS [1]; [4]) | autophagy induction (U2OS [1]; [5]) | autophagy induction (U2OS [1]; [6]) | autophagy induction (U2OS [1]; [7]) | autophagy induction (U2OS [1]; [8]) | autophagy induction (U2OS [1]; [9]) | autophagy induction (U2OS [1]; [10]) | further results
1 | O=C(O)C1CN(Cc2ccc(-c3nc4cc(Cc5ccccc5F)ccc4s3)c(F)c2)C1 | -8.917% | -10.8072% | -9.562% | -5.859% | -8.468% | -9.963% | -11.3812% | -13.3438% | -4.678% | -6.178% | -7.73% | -6.2118% | 4.055% | -0.4566% | -1.32% | -0.5858% | 1.76% | 0.3602% | -0.6521% | -0.7655% | autophagy induction (U2OS [1]; [11]): -1.302%; autophagy induction (U2OS [1]; [12]): -1.781%; autophagy induction (U2OS [1]; [13]): -1.367%; autophagy induction (U2OS [1]; [14]): -0.5842%; autophagy induction (U2OS [2]; [3]): 3.797%; autophagy induction (U2OS [2]; [4]): -4.944%; autophagy induction (U2OS [2]; [5]): -8.688%; autophagy induction (U2OS [2]; [6]): -8.1655%; autophagy induction (U2OS [2]; [7]): 22.0588%; autophagy induction (U2OS [2]; [8]): 16.1887%; autophagy induction (U2OS [2]; [9]): 14.8366%; autophagy induction (U2OS [2]; [10]): 4.458%; autophagy induction (U2OS [2]; [11]): 26.4516%; autophagy induction (U2OS [2]; [12]): 18.766%; autophagy induction (U2OS [2]; [13]): 13.3531%; autophagy induction (U2OS [2]; [14]): 2.726%
2 | Cc1nnn(-c2ccc(-c3ccc(C4(C(=O)O)CC4)cc3)cc2)c1NC(=O)O[C@H](C)c1ccccc1 | -8.995% | -11.6561% | -16.9316% | -15.4997% | -6.061% | -9.8231% | -13.2189% | 6.862% | 6.725% | 7.557% | 8.9017% | 33.5372% | 2.665% | 0.2559% | -0.1373% | 0.1457% | 3.283% | 0.4892% | -0.1911% | -0.4752% | autophagy induction (U2OS [1]; [11]): 8.52%; autophagy induction (U2OS [1]; [12]): 5.722%; autophagy induction (U2OS [1]; [13]): 2.388%; autophagy induction (U2OS [1]; [14]): 0.4676%; autophagy induction (U2OS [2]; [3]): -1.478%; autophagy induction (U2OS [2]; [4]): 0.2424%; autophagy induction (U2OS [2]; [5]): -2.356%; autophagy induction (U2OS [2]; [6]): -5.696%; autophagy induction (U2OS [2]; [7]): 5.693%; autophagy induction (U2OS [2]; [8]): 3.627%; autophagy induction (U2OS [2]; [9]): 6.347%; autophagy induction (U2OS [2]; [10]): 1.322%; autophagy induction (U2OS [2]; [11]): 9.873%; autophagy induction (U2OS [2]; [12]): 11.541%; autophagy induction (U2OS [2]; [13]): 8.0313%; autophagy induction (U2OS [2]; [14]): 1.41%
3 | CNc1nc(NCc2ccc(NS(C)(=O)=O)cc2Cl)cc(-c2ccccn2)n1 | -1.3719% | -4.63% | -8.2685% | -4.377% | 1.95% | -3.372% | -5.053% | 1.232% | 14.7912% | 21.0269% | 30.7963% | 56.217% | -4.8332% | -1.906% | -1.0253% | -0.2766% | -0.6465% | 0.2341% | -0.0484% | 0.9042% | autophagy induction (U2OS [1]; [11]): -8.81%; autophagy induction (U2OS [1]; [12]): -3.343%; autophagy induction (U2OS [1]; [13]): -3.38%; autophagy induction (U2OS [1]; [14]): -6.97%; autophagy induction (U2OS [2]; [3]): 14.6542%; autophagy induction (U2OS [2]; [4]): 1.484%; autophagy induction (U2OS [2]; [5]): 3.538%; autophagy induction (U2OS [2]; [6]): 8.159%; autophagy induction (U2OS [2]; [7]): 23.6541%; autophagy induction (U2OS [2]; [8]): 10.7985%; autophagy induction (U2OS [2]; [9]): 11.9727%; autophagy induction (U2OS [2]; [10]): 23.1222%; autophagy induction (U2OS [2]; [11]): 27.3974%; autophagy induction (U2OS [2]; [12]): 31.2749%; autophagy induction (U2OS [2]; [13]): 36.9575%; autophagy induction (U2OS [2]; [14]): 46.6456%
4 | Cc1c(C2=CCN(C(=O)N(C)C(C)C)CC2)nnn1-c1cccnc1F | -7.351% | -10.2554% | -12.7414% | -13.7381% | -4.799% | -6.124% | -8.583% | -9.595% | -1.3221% | -2.795% | -0.6234% | 3.817% | 2.838% | 0.05909% | -0.5317% | -0.9964% | -1.633% | -1.565% | -0.7182% | -1.565% | autophagy induction (U2OS [1]; [11]): 1.202%; autophagy induction (U2OS [1]; [12]): 0.8484%; autophagy induction (U2OS [1]; [13]): 0.458%; autophagy induction (U2OS [1]; [14]): -1.904%; autophagy induction (U2OS [2]; [3]): 23.3711%; autophagy induction (U2OS [2]; [4]): 12.0378%; autophagy induction (U2OS [2]; [5]): 26.6789%; autophagy induction (U2OS [2]; [6]): 23.6658%; autophagy induction (U2OS [2]; [7]): -5.386%; autophagy induction (U2OS [2]; [8]): -5.642%; autophagy induction (U2OS [2]; [9]): -9.747%; autophagy induction (U2OS [2]; [10]): -4.534%; autophagy induction (U2OS [2]; [11]): -2.977%; autophagy induction (U2OS [2]; [12]): 0.8858%; autophagy induction (U2OS [2]; [13]): -1.59%; autophagy induction (U2OS [2]; [14]): 4.327%
